Measured values published in US20170190671A1, “BIS(ARYL)CATECHOL DERIVATIVES AS HERBICIDES” (E I DU PONT DE NEMOURS AND COMPANY, priority 2014, published 2017).

Key:
Settings in all cases: scale 0 to 100
[1] = tested on: downy bromegrass (Bromus tectorum); assay: Test D postemergence; type: in vivo
Procedure, shortened: (§1)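 Plants were kept in a controlled environment for 14 to 21 days after spraying, then compared with untreated controls. Scores run from 0, no effect, to 100, complete control; preemergence pots used silt loam and postemergence pots a peat-based medium.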

[2] = tested on: Italian ryegrass (Lolium multiflorum); assay: Test D postemergence; type: in vivo
Procedure, shortened: as §1

[3] = tested on: winter wheat (Triticum aestivum); assay: Test D postemergence; type: in vivo
Procedure, shortened: as §1

[4] = tested on: galium (catchweed bedstraw, Galium aparine); assay: Test D postemergence; type: in vivo
Procedure, shortened: as §1

[5] = tested on: field poppy (Papaver rhoeas); assay: Test D postemergence; type: in vivo
Procedure, shortened: as §1

[6] = tested on: oilseed rape (Brassica napus); assay: Test D postemergence; type: in vivo
Procedure, shortened: as §1

[7] = tested on: wild mustard (Sinapis arvensis); assay: Test D postemergence; type: in vivo
Procedure, shortened: as §1

[8] = tested on: green foxtail (Setaria viridis); assay: Test D postemergence; type: in vivo
Procedure, shortened: as §1

[9] = tested on: windgrass (Apera spica-venti); assay: Test D postemergence; type: in vivo
Procedure, shortened: as §1

[10] = tested on: bluegrass (annual bluegrass, Poa annua); assay: Test D postemergence; type: in vivo
Procedure, shortened: as §1

[11] = tested on: chamomile (scentless chamomile, Matricaria inodora); assay: Test D postemergence; type: in vivo
Procedure, shortened: as §1

wild oat (Avenafatua) = assay: Test D preemergence; type: in vivo, Avena fatua
Source text: Seeds of plant species selected from bluegrass (annual bluegrass, Poa annua), blackgrass (Alopecurus myosuroides), canarygrass (Phalaris minor), chickweed (common chickweed, Stellaria media), cutleaf geranium (Geranium dissectum), galium (catchweed bedstraw, Galium aparine), downy bromegrass (Bromus tectorum), field poppy (Papaver rhoeas), field violet (Viola arvensis), green foxtail (Setaria viridis), deadnettle (henbit deadnettle, Lamium amplexicaule), Italian ryegrass (Lolium multiflorum), kochia (Kochia scoparia), lambsquarters (Chenopodium album), oilseed rape (Brassica napus), pigweed (Amaranthus retroflexus), chamomile (scentless chamomile, Matricaria inodora), Russian thistle (Salsola kali), speedwell (bird's-eye speedwell, Veronica persica), spring barley (Hordeum vulgare), spring wheat (Triticum aestivum), wild buckwheat (Polygonum convolvulus), wild mustard (Sinapis arvensis), wild oat (Avenafatua), wild radish (Raphanus raphanistrum), windgrass (Apera spica-venti), winter barley (Hordeum vulgare), and winter wheat (Triticum aestivum) were planted into a silt loam soil and treated preemergence with test chemicals formulated in a non-phytotoxic solvent mixture which included a surfactant.
At the same time, these species were planted in pots containing Redi-Earth® planting medium (Scotts Company, 14111 Scottslawn Road, Marysville, Ohio 43041) comprising spaghnum peat moss, vermiculite, wetting agent and starter nutrients and treated with postemergence applications of the test chemicals formulated in the same manner. Plants ranged in height from 2 to 18 cm (1- to 4-leaf stage). Treated plants and controls were maintained in a controlled growth environment for 14 to 21 days after which time all species were compared to controls and visually evaluated. Plant response ratings, summarized in Table D, are based on a scale of 0 to 100 where 0 is no effect and 100 is complete control. A dash (-) response means no test result.

[12] = tested on: Russian thistle (Salsola kali); assay: Test D postemergence; type: in vivo
Procedure, shortened: as §1

N#Cc1cccc(Oc2ncc(Cl)cn2)c1Oc1ncc(Cl)cn1 [Compound 3, 2,3-bis[(5-chloro-2-pyrimidinyl)oxy]benzonitrile]
Plant response rating, Bromegrass, Downy ([1]; 16 g ai/ha): 10
Plant response rating, Bromegrass, Downy ([1]; 31 g ai/ha): 20
Plant response rating, Bromegrass, Downy ([1]; 62 g ai/ha): 25
Plant response rating, Bromegrass, Downy ([1]; 125 g ai/ha): 25
Plant response rating, Ryegrass, Italian ([2]; 16 g ai/ha): 0
Plant response rating, Ryegrass, Italian ([2]; 31 g ai/ha): 10
Plant response rating, Ryegrass, Italian ([2]; 62 g ai/ha): 10
Plant response rating, Ryegrass, Italian ([2]; 125 g ai/ha): 15
Plant response rating, Wheat, Winter ([3]; 16 g ai/ha): 0
Plant response rating, Wheat, Winter ([3]; 31 g ai/ha): 10
Plant response rating, Wheat, Winter ([3]; 62 g ai/ha): 10
Plant response rating, Wheat, Winter ([3]; 125 g ai/ha): 15
Plant response rating, Galium ([4]; 16 g ai/ha): 75
Plant response rating, Galium ([4]; 31 g ai/ha): 95
Plant response rating, Galium ([4]; 62 g ai/ha): 100
Plant response rating, Galium ([4]; 125 g ai/ha): 100
Plant response rating, Field Poppy ([5]; 16 g ai/ha): 35
Plant response rating, Field Poppy ([5]; 31 g ai/ha): 40
Plant response rating, Field Poppy ([5]; 62 g ai/ha): 55
Plant response rating, Field Poppy ([5]; 125 g ai/ha): 70
Plant response rating, Oilseed Rape ([6]; 16 g ai/ha): 40
Plant response rating, Oilseed Rape ([6]; 31 g ai/ha): 55
Plant response rating, Oilseed Rape ([6]; 62 g ai/ha): 60
Plant response rating, Oilseed Rape ([6]; 125 g ai/ha): 90
Plant response rating, Mustard, Wild ([7]; 16 g ai/ha): 45
Plant response rating, Mustard, Wild ([7]; 31 g ai/ha): 60
Plant response rating, Mustard, Wild ([7]; 62 g ai/ha): 65
Plant response rating, Mustard, Wild ([7]; 125 g ai/ha): 85
Plant response rating, Foxtail, Green ([8]; 16 g ai/ha): 10
Plant response rating, Foxtail, Green ([8]; 31 g ai/ha): 15
Plant response rating, Foxtail, Green ([8]; 62 g ai/ha): 20
Plant response rating, Foxtail, Green ([8]; 125 g ai/ha): 40
Plant response rating, Windgrass ([9]; 16 g ai/ha): 10
Plant response rating, Windgrass ([9]; 31 g ai/ha): 15
Plant response rating, Windgrass ([9]; 62 g ai/ha): 25
Plant response rating, Windgrass ([9]; 125 g ai/ha): 30
Plant response rating, Bluegrass ([10]; 16 g ai/ha): 15
Plant response rating, Bluegrass ([10]; 31 g ai/ha): 20
Plant response rating, Bluegrass ([10]; 62 g ai/ha): 25
Plant response rating, Bluegrass ([10]; 125 g ai/ha): 30
Plant response rating, Chamomile ([11]; 16 g ai/ha): 0
Plant response rating, Chamomile ([11]; 31 g ai/ha): 0
Plant response rating, Chamomile ([11]; 62 g ai/ha): 20
Plant response rating, Chamomile ([11]; 125 g ai/ha): 35
Plant response rating, Oat, Wild (wild oat (Avenafatua); 16 g ai/ha): 0
Plant response rating, Oat, Wild (wild oat (Avenafatua); 31 g ai/ha): 0
Plant response rating, Oat, Wild (wild oat (Avenafatua); 62 g ai/ha): 0
Plant response rating, Oat, Wild (wild oat (Avenafatua); 125 g ai/ha): 50

Fc1cnc(Oc2c(Br)cccc2Oc2ncc(Cl)cn2)nc1 [Compound 22]
Plant response rating, Russian Thistle ([12]; 16 g ai/ha): 0
Plant response rating, Russian Thistle ([12]; 31 g ai/ha): 5
Plant response rating, Russian Thistle ([12]; 62 g ai/ha): 10
Plant response rating, Russian Thistle ([12]; 125 g ai/ha): 15
Plant response rating, Bromegrass, Downy ([1]; 16 g ai/ha): 5
Plant response rating, Bromegrass, Downy ([1]; 31 g ai/ha): 10
Plant response rating, Bromegrass, Downy ([1]; 62 g ai/ha): 20
Plant response rating, Bromegrass, Downy ([1]; 125 g ai/ha): 25
Plant response rating, Ryegrass, Italian ([2]; 16 g ai/ha): 15
Plant response rating, Ryegrass, Italian ([2]; 31 g ai/ha): 20
Plant response rating, Ryegrass, Italian ([2]; 62 g ai/ha): 25
Plant response rating, Ryegrass, Italian ([2]; 125 g ai/ha): 35
Plant response rating, Wheat, Winter ([3]; 16 g ai/ha): 0
Plant response rating, Wheat, Winter ([3]; 31 g ai/ha): 5
Plant response rating, Wheat, Winter ([3]; 62 g ai/ha): 5
Plant response rating, Wheat, Winter ([3]; 125 g ai/ha): 10
Plant response rating, Galium ([4]; 16 g ai/ha): 70
Plant response rating, Galium ([4]; 31 g ai/ha): 60
Plant response rating, Galium ([4]; 62 g ai/ha): 75
Plant response rating, Galium ([4]; 125 g ai/ha): 85
Plant response rating, Field Poppy ([5]; 16 g ai/ha): 55
Plant response rating, Field Poppy ([5]; 31 g ai/ha): 65
Plant response rating, Field Poppy ([5]; 62 g ai/ha): 70
Plant response rating, Field Poppy ([5]; 125 g ai/ha): 70
Plant response rating, Oilseed Rape ([6]; 16 g ai/ha): 15
Plant response rating, Oilseed Rape ([6]; 31 g ai/ha): 45
Plant response rating, Oilseed Rape ([6]; 62 g ai/ha): 70
Plant response rating, Oilseed Rape ([6]; 125 g ai/ha): 80
Plant response rating, Mustard, Wild ([7]; 16 g ai/ha): 35
Plant response rating, Mustard, Wild ([7]; 31 g ai/ha): 40
Plant response rating, Mustard, Wild ([7]; 62 g ai/ha): 55
Plant response rating, Mustard, Wild ([7]; 125 g ai/ha): 75
Plant response rating, Foxtail, Green ([8]; 16 g ai/ha): 10
Plant response rating, Foxtail, Green ([8]; 31 g ai/ha): 15
Plant response rating, Foxtail, Green ([8]; 62 g ai/ha): 25
Plant response rating, Foxtail, Green ([8]; 125 g ai/ha): 30
Plant response rating, Windgrass ([9]; 16 g ai/ha): 5
Plant response rating, Windgrass ([9]; 31 g ai/ha): 10
Plant response rating, Windgrass ([9]; 62 g ai/ha): 25
Plant response rating, Windgrass ([9]; 125 g ai/ha): 35
Plant response rating, Bluegrass ([10]; 16 g ai/ha): 0
Plant response rating, Bluegrass ([10]; 31 g ai/ha): 5
Plant response rating, Bluegrass ([10]; 62 g ai/ha): 15
Plant response rating, Bluegrass ([10]; 125 g ai/ha): 40
Plant response rating, Chamomile ([11]; 16 g ai/ha): 0
Plant response rating, Chamomile ([11]; 31 g ai/ha): 0
Plant response rating, Chamomile ([11]; 62 g ai/ha): 0
Plant response rating, Chamomile ([11]; 125 g ai/ha): 5
Plant response rating, Oat, Wild (wild oat (Avenafatua); 16 g ai/ha): 5
Plant response rating, Oat, Wild (wild oat (Avenafatua); 31 g ai/ha): 10
Plant response rating, Oat, Wild (wild oat (Avenafatua); 62 g ai/ha): 20
Plant response rating, Oat, Wild (wild oat (Avenafatua); 125 g ai/ha): 25
